The values below come from the Bradley open melting point set (2014).

Molecules are shown by their SMILES. Values joined by “and” are separate entries in the source; they are usually repeats but may differ in a detail not shown here. Equal entries are not always repeated.

Usually melting point stands for the temperature, or range, at which the solid turns liquid.

`C/C=C/CCC` [trans-2-hexene]: the melting point was -133 °C.
As for `[O-][P+](c1ccccc1)(c1ccccc1)C1C=C(c2ccccc2)C=C(c2ccccc2)O1` (stereo not given) [(4,6-diphenyl-2H-pyran-2-yl)(diphenyl)phosphane oxide], the figure is 152 °C; as for `COC(=O)C1(C)C(C)=Nc2ccccc21` (stereo not given) [methyl 2,3-dimethyl-3H-indole-3-carboxylate], 81 °C.
In the case of `N#Cc1ccc2ncsc2c1` [benzothiazole-6-carbonitrile], the melting point is 138 °C.
For `CNN` [Methylhydrazine], the melting point is -80 °C.
In the case of `c1ccc2c(c1)Cc1ccccc1O2` [Xanthene], the melting point stood at 101 °C.
`Oc1ccc2ccccc2c1Br` [1-bromo-2-naphthol] returned a melting point of 79 °C.
`Cc1ccnc(NS(=O)(=O)c2ccc(N)cc2)n1` [sulfamerazine] had a melting point of 236 °C.
In turn, `CC12CCC(C(=O)C1=O)C2(C)C` (stereo not given) [camphorquinone] registered a melting point of 200 °C.
As for `c1ccc(-c2nnc(-c3ccccc3)o2)cc1` [2,5-diphenyl-1,3,4-oxadiazole], the melting point was found to be 140 °C.
`CC(C)c1ncc([N+](=O)[O-])n1C` [ipronidazole] returned a melting point of 61 °C.
`O=[N+]([O-])c1cccc(Cl)c1Cl` [2,3-dichloronitrobenzene] registered a melting point of 62 °C.
`C(=Cc1ccccc1)Cc1ccccc1` [benzene, 1,1'-(1-propene-1,3-diyl)bis-] gave a melting point of 155 °C.
In the case of `Cc1ccc(N)c([N+](=O)[O-])c1` [4-Methyl-2-nitroaniline], the melting point worked out at 117 °C.
The compound `Sc1nc2ccccc2s1` [2-mercaptobenzothiazole] gave a melting point of 180 °C.
Consider `COc1cc(Cl)cc(Cl)c1` [3,5-dichloroanisole], for which the melting point was determined as 41 °C.
In turn, `CC(C)(C)c1ccc2c(c1)OCCOCCOc1cc(C(C)(C)C)ccc1OCCOCCO2` [4',4''(5'')-di-tert-butyldibenzo-18-crown-6] had a melting point of 110 °C.
`NC(=O)c1ccccc1-c1ccccc1` [o-phenylbenzamide] yielded a melting point of 177 °C.
As for `CC(Oc1c(Cl)cccc1Cl)C1=NCCN1` (stereo not given) [lofexidine], the melting point was determined as 126 °C.
As for `O=C1SCCN1C(=O)c1ccccc1` [3-Benzoyl-1,3-thiazolidin-2-one], the figure is 121 °C; as for `O=C(O)Cc1ccc(O)c(F)c1` [3-fluoro-4-hydroxyphenylacetic acid], 132 °C; as for `CC(C)(C)c1cc(C(=S)NC2CCCCC2)cc(C(C)(C)C)c1O` [3,5-Di-tert-butyl-N-cyclohexyl-4-hydroxy-thiobenzamide], 228 °C.
`O=Cc1c(Cl)cccc1Cl` [2,6-dichlorobenzaldehyde]: the melting point was 71 °C and 71.5 °C.
`CC(=O)NS(=O)(=O)c1ccc(N)cc1` [sulfacetamide] displayed a melting point of 183 °C.
The same measure for `c1ccc2[nH]nnc2c1` [1h-benzotriazole]: 98 °C; for `CCC(=O)O` [Propionic acid]: -20.8 °C.
As for `C=Cc1ccc([N+](=O)[O-])cc1` [p-nitrostyrene], the figure is 29 °C.
In turn, `C=CCCCCC` [1-heptene] came in with a melting point of -119 °C.
Regarding `CCOC(=O)OCC` [Diethyl carbonate], the melting point is -43 °C.
Turning to `O=Cc1ccc(O)c([N+](=O)[O-])c1` [4-hydroxy-3-nitrobenzaldehyde], the melting point was found to be 142 °C.
As for `c1ccc2c(c1)cc1ccc3cccc4ccc2c1c34` [Benzo[a]pyrene], the figure is 176 °C; as for `ClCCOCCCl` [1-Chloro-2-(2-chloroethoxy)ethane], -47 °C; as for `O=P(O)(O)CP(=O)(O)O` [methylenediphosphonic acid], 203 °C.
In turn, `O=C(OCc1ccccc1)c1ccccc1` [benzyl_benzoate] returned a melting point of 19 °C.
`OCC12CC3CC(CC(C3)C1)C2` [1-adamantanemethanol] displayed a melting point of 117 °C.
